We go through 20 molecules from US4547507A, “Benzothiopyranopyridinones” (Roussel Uclaf, priority 1982, dated 1985).

One experiment concerns the target rat cortical α1 receptor. The experiment in a line: Test B: [3H]Prazosin displacement from rat cortical α1 receptor binding sites. The settings on record: rat cerebral cortex membranes, [3H]prazosin 0.1 nM, 25° C., 30 minutes, pH 7.5. As to the method:
Test B--[^3 H]Pyrazosin displacement from rat cortical α1 receptor binding sites (a) Radioligand--[^3 H]Prazosin (Amersham International, TRK 647, 28 Ci/mmole) was used as a 1 μCi/1 μl solution and this stock solution was diluted 1/18,000 in assay buffer and 0.1 ml volumes of this were added to 2 ml binding assay. =0.1 nM [^3 H]Prazosin and =0.0056 μCi/binding assay (b) Membrane preparation--The cerebral cortices were dissected from male CFHB rats and homogenized in 20 volumes of ice cold 0.32M sucrose using a Teflon/glass homogenizer and the homogenate was centrifuged at 1000 g for 10 minutes. The resulting pellet was discarded and the supernatant was recentrifuged at 30,000 g for 30 minutes. The supernatant was discarded and the pellet was resuspended by homogenization in 50 volumes of 50 mM pH 7.5 Tris HCl buffer (assay buffer). (c) Non-specific binding--Non-specific binding was accounted for by the inclusion of 100 μM 1-noradrenaline in blank binding assays which required a stock solution of 2 mM 1-noradrenaline made up fresh daily in 0.1% 1-ascorbic acid. (d) Displacing compounds--Solutions were prepared at 20x final assay concentration in distilled water. (e) Binding assay protocol--1.3 ml assay buffer, 0.5 ml membrane suspension, 0.1 ml distilled H2 O or drug solution and 0.1 ml [^3 H]pyrazosin dilution Binding assays were made up in ice with the [^3 H]pyrazosin being added last and incubated at 25° C. for 30 minutes. The bound ligand was separated by filtration through Whatman GF/C glass fibre filters under vacuum followed by 2×10 ml rinses of ice cold assay buffer. The filters were dried at 80° C. and counted in 5 ml volumes of ECONOFLUOR (NEN) scintillation cocktail. All binding assays, controls, blanks and each of four displacer concentrations were run in triplicate. IC50 values (Test B) were obtained graphically from log dose versus percent inhibition of specific binding plots.

In experiment [1] the target is rat cortical muscarinic receptor. The experiment in a line: Test D: [3H]Quinuclidinyl benzylate displacement from rat cortical muscarinic receptor binding sites. The conditions noted are these: rat cortical membranes, [3H]quinuclidinyl benzylate 0.31 nM, 25° C., 60 minutes; read-out: Test D MUSC IC50. As to the method:
Test D--[^3 H]Quinuclidinyl benzylate displacement from rat cortical muscarinic receptor binding sites
(a) Radioligand--DL-[3-^3 H]Quinuclidinyl benzylate (Amersham International, TRK 506, 12 Ci/mmol) was used as a 1 μCi/1 μl solution and this stock solution was diluted 1/13333 in assay buffer and 0.1 ml volumes of this were added to 2 ml binding assay =0.31 nM and =0.0075 μCi/binding assay
(§1) (b) Membrane preparation--As for Test B
(c) Non-specific binding--Non-specific binding was accounted for by the inclusion of 100 μM oxotremorine sesquifumarate in blank binding assays and this required a stock solution of 2 mM in distilled H2 O.
(d) Displacement compounds--As for Test B
(e) Assay protocol--As for Test B with the exception that the binding assays were incubated at 25° C. for 60 minutes.

Experiment [2] concerns the target rat striatal dopamine receptor (Rattus norvegicus, UniProt P61169). Briefly: Test A: [3H]Spiroperidol displacement from rat striatal dopamine receptor binding sites. The settings on record: rat striatal membranes, [3H]spiroperidol 0.19 nM, 37° C., 10 minutes, pH 7.6; read-out: Test A receptor DA IC50. Here is the method:
Test A--[^3 H Spiroperidol displacement from rat striatal dopamine receptor binding sites
(a) Radioligand--[phenyl-4-(n)-^3 H]Spiroperido (Amersham International, TRK 570, 21 Ci/mmol was used as a 1 μCi/1 μl solution in ethanol and this solution was diluted to 250 μCi in 1 ml of ethanol to produce a stock solution. This stock solution was diluted 3.2/10,000 in assay buffer and 0.1 ml volumes of this were added to 2 ml binding assays =0.19 nM [^3 H]spiroperidol and =[…]
(b) Assay buffer--The assay buffer was a modified 50 mM Tris HCl buffer with a pH of 7.6 containing the following additions: NaCl-120 mM, KCl-5 mM, MgCl2 -1 mM, CaCl2 -2 mM, Pargyline-10 μM and 1-Ascorbic Acid-0.1%
(c) Membrane preparation--The striata were dissected from male CFHB rats and homogenized in 20 volumes of ice cold 0.32M sucrose with a Teflon/glass homogenizer and the homogenate was centrifuged at 1000 g for 10 minutes. The resulting supernatant was recentrifuged at 30,000 g for 30 minutes and the supernatant was discarded and the pellet was resuspended by homogenization in 30 volumes of ice cold assay buffer.
(d) Non-specific binding--Non-specific binding was accounted for by the inclusion of 1 μM(+)butaclamol in blank binding assays which required a stock solution of 20 μM in distilled water.
(e) Displacing compounds--Solutions were prepared at 20x final assay concentration in distilled water.
(f) Binding assay protocol--1.3 ml assay buffer, 0.5 ml membrane suspension, 0.1 ml distilled H2 O or drug solution and 0.1 ml [^3 H]spiroperidol dilution Binding assays were made up in ice with the [^3 H]spiroperidol being added last and incubated at 37° C. for 10 minutes. The bound ligand was separated by filtration through Whatman GF/C filters under vacuum followed by 2×10 ml rinses of ice cold assay buffer. The filters were dried at 80° C. and counted in 5 ml volumes of ECONOFLUOR (NEN) scintillation cocktail. All binding assays, controls, blanks and each of four displacer concentration were run in triplicate. IC50 values (Test A) were obtained graphically from log dose versus percent inhibition of specific binding plots.

The target of the next experiment is rat cortical α2 receptor. The experiment in a line: Test C: [3H]Dihydroergocryptine displacement from rat cortical α2 receptor binding sites. The conditions noted are these: rat cortical membranes, [3H]dihydroergocryptine 0.45 nM, 25° C., 45 minutes in the dark; approximately 80% of binding is α2. Here is the method:
Test C--[^3 H]Dihydroergocryptine displacement from rat cortical α2 *receptor binding sites
(a) Radioligand--[9,10(n)-^3 H]9,10-Dihydroergocryptine (Amersham International, TRK 555, 17.5 Ci/mmole) was used as a 1 μCi/1 μl solution and this stock solution was diluted 1/6250 in assay buffer and 0.1 ml volumes of this were added to 2 ml binding assays. =0.45 nM and =0.016 μCi/binding assay
*In cortical membranes, [^3 H]dihydroergocryptine binds to both α1 and α2 receptor binding sites under the conditions of assay described here, approximately 80% of the binding is associated with α2 receptors.
as §1
(c) Non-specific binding--As for Test B
(d) Displacing compounds--As for Test B
(e) Assay protocol--As for Test B with the exception that the binding assays were incubated at 25° C. for 45 minutes in the dark.

pIC50: −log10 of the molar value. Where a name gives a salt, the structure may show the parent alone.

Chain of rat striatal dopamine receptor (P61169 whole entry): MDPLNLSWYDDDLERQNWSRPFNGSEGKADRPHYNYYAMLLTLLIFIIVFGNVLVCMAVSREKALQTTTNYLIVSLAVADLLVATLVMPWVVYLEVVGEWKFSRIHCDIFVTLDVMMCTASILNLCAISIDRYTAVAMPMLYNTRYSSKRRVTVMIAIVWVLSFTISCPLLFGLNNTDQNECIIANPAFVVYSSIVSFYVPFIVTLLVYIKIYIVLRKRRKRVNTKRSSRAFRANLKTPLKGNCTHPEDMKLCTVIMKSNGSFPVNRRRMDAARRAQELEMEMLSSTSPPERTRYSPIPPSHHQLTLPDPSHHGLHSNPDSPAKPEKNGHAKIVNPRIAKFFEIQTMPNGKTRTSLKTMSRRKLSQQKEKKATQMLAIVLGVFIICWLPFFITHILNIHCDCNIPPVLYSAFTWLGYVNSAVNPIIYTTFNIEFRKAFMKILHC

What is called pIC50 is the IC50 on a negative log10 scale, so that one unit is a factor of ten. Turning to `O=c1c2c(sc3ccccc13)CCN(CCO)C2` [Example 35], the pIC50 is 5.00 on rat cortical α1 receptor, 4.15 in experiment [1], 5.00 in experiment [2] and 5.48 at rat cortical α2 receptor.

As for `COc1ccc2c(=O)c3c(sc2c1)CCNC3` [Example 3, 1,2,3,4-tetrahydro-7-methoxy-10H-(1)-benzothiopyrano[3,2-c]pyridin-10-one hydrochloride], the pIC50 was under 5.00 on rat cortical α1 receptor, 4.57 in experiment [1], under 5.00 in experiment [2] and 5.37 at rat cortical α2 receptor.

Turning to `O=c1c2c(sc3ccccc13)CCN(CCC1OCCCO1)C2` [Example 31], the pIC50 at rat cortical α1 receptor was 5.47; in experiment [1] it was 4.13; in experiment [2] it was 6.25; at rat cortical α2 receptor, 6.19.

As for `COc1ccc2sc3c(c(=O)c2c1)CNCC3` [Example 4, 1,2,3,4-tetrahydro-8-methoxy-10H-(1)-benzothiopyrano[3,2-c]pyridin-10-one hydrochloride], the pIC50 on rat cortical α1 receptor is 5.11; in experiment [1], 4.24; in experiment [2] it was under 5.00; at rat cortical α2 receptor it was 5.54.

For `CCCN1CCc2sc3ccccc3c(=O)c2C1` [Example 11, 1,2,3,4-tetrahydro-2-n-propyl-10H-(1)-benzothiopyrano[3,2-c]pyridin-10-one hydrochloride], the pIC50 at rat cortical α1 receptor was 5.89; in experiment [1] it was under 4.00; in experiment [2] it was 6.31; on rat cortical α2 receptor, 6.82.

Take `O=c1c2c(sc3ccc4ccccc4c13)CCNC2` [Example 5, 1,2,3,4-tetrahydro-12H-naphtho[1',2':5,6]thiopyrano[3,2-c]pyridin-12-one hydrochloride]: the pIC50 on rat cortical α1 receptor was 5.77; in experiment [1] it was 4.71; in experiment [2], 5.28; at rat cortical α2 receptor, 5.80.

For the molecule `O=C(CN1CCc2sc3ccccc3c(=O)c2C1)c1ccccc1` [Example 33], the pIC50 on rat cortical α1 receptor was under 5.00; in experiment [1], under 4.00; in experiment [2], under 5.00; on rat cortical α2 receptor it was under 5.00.

For `O=c1c2c(sc3ccccc13)CCN(CCCn1c(=O)[nH]c3ccccc31)C2` [Example 36], the pIC50 is 6.72 at rat cortical α1 receptor, 4.35 in experiment [1], 7.52 in experiment [2] and 6.82 on rat cortical α2 receptor.

`CCCCCN1CCc2sc3ccccc3c(=O)c2C1` [Example 17, 1,2,3,4-tetrahydro-2-n-pentyl-10H-(1)-benzothiopyrano[3,2-c]pyridin-10-one hydrochloride]: the pIC50 on rat cortical α1 receptor is 6.51; in experiment [1], 4.40; in experiment [2], 7.15; on rat cortical α2 receptor it was 7.15.

In the case of `CN1CCc2sc3ccccc3c(=O)c2C1` [Example 12, 1,2,3,4-tetrahydro-2-methyl-10H-(1)-benzothiopyrano[3,2-c]pyridin-10-one hydrochloride], the pIC50 on rat cortical α1 receptor was 5.51; in experiment [1] it was 4.49; in experiment [2], 5.55; on rat cortical α2 receptor it was 6.03.

As to `O=c1c2c(sc3ccccc13)CCN(Cc1ccccc1)C2` [Example 6, 2-benzyl-1,2,3,4-tetrahydro-10H-(1)-benzothiopyrano[3,2-c]pyridin-10-one hydrochloride], the pIC50 at rat cortical α1 receptor was 5.40; in experiment [1], under 4.00; in experiment [2], 6.17; on rat cortical α2 receptor, 6.30.

As to `Cc1ccc2sc3c(c(=O)c2c1)CNCC3` [Example 2, 1,2,3,4-tetrahydro-8-methyl-10H-(1)benzothiopyrano[3,2-c]pyridin-10-one hydrochloride], the pIC50 on rat cortical α1 receptor is under 5.00; in experiment [1], 4.34; in experiment [2] it was under 5.00; at rat cortical α2 receptor, 5.48.

As to `O=c1c2c(sc3ccccc13)CCN(CCc1ccccc1)C2` [Example 32], the pIC50 on rat cortical α1 receptor is 6.77; in experiment [1], 4.33; in experiment [2], 6.64; at rat cortical α2 receptor, 6.68.

For `O=c1c2c(sc3ccccc13)CCN(CCC1CCCCC1)C2` [Example 30], the pIC50 is 5.94 at rat cortical α1 receptor, under 4.00 in experiment [1], 6.74 in experiment [2] and 6.72 at rat cortical α2 receptor.

Take `CC(C)CCN1CCc2sc3ccccc3c(=O)c2C1` [Example 15, 1,2,3,4-tetrahydro-2-isopentyl-10H-(1)-benzothiopyrano[3,2-c]pyridin-10-onehydrochloride]: the pIC50 at rat cortical α1 receptor is 6.17; in experiment [1], 4.06; in experiment [2] it was 7.22; on rat cortical α2 receptor, 6.77.

Turning to `C=CCN1CCc2sc3ccccc3c(=O)c2C1` [Example 34], the pIC50 on rat cortical α1 receptor was 5.40; in experiment [1] it was 4.43; in experiment [2], 5.55; at rat cortical α2 receptor, 6.41.

`CCCCCCN1CCc2sc3ccccc3c(=O)c2C1` [Example 18, 2-n-hexyl-1,2,3,4-tetrahydro-10H-(1)-benzothiopyrano[3,2-c]pyridin-10-one hydrochloride]: the pIC50 on rat cortical α1 receptor is 6.40; in experiment [1], 4.80; in experiment [2] it was 6.89; on rat cortical α2 receptor, 7.10.

As for `O=c1c2c(sc3ccccc13)CCN(CC1CCCCC1)C2` [Example 20, 2-cyclohexylmethyl-1,2,3,4-tetrahydro-10H-(1)-benzothiopyrano[3,2-c]pyridin-10-one hydrochloride], the negative logarithm of the IC50 (pIC50) on rat cortical α1 receptor was 5.57; in experiment [1], under 4.00; in experiment [2] it was 8.00; at rat cortical α2 receptor, 6.64.

Take `CC(C)CN1CCc2sc3ccccc3c(=O)c2C1` [Example 19, 1,2,3,4-tetrahydro-2-isobutyl-10H-(1)-benzothiopyrano[3,2-c]pyridin-10-one hydrochloride]: the pIC50 at rat cortical α1 receptor is 5.34; in experiment [1] it was under 4.00; in experiment [2], 7.00; on rat cortical α2 receptor, 6.82.

Take `O=c1c2c(sc3ccccc13)CCN(CC1=CCCCC1)C2` [Example 29]: the pIC50 was 5.58 on rat cortical α1 receptor, under 4.00 in experiment [1], 6.77 in experiment [2] and 6.82 at rat cortical α2 receptor.
